PubChem BioAssay (NCI)
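These data come from cells grown in 96-well plates and exposed to compound for 48 hours at five concentrations. GI50: concentration for 50% inhibition of growth. TGI: concentration producing complete growth inhibition.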 *1 amine or outer side, *2 acyl side, *3 side chain or, on linkers, in order; H or OH if unused. Where a SMILES comes first, the peptide text is derived from it. Bridges are numbered along the chain shown (N, C = ends). [ ]: non-standard residue; d: D form. The star is where a group is joined. Phe(3-Me) = Cc1cccc(C[C@H](N)C(=O)O)c1; NH(4-Cl-2-F-phenyl) = Fc1cc(Cl)ccc1N*; Pro(4R-Me) = C[C@H]1CN[C@H](C(=O)O)C1; Hyp = O=C(O)[C@@H]1C[C@@H](O)CN1; aThr = C[C@H](O)[C@H](N)C(=O)O; Pip = O=C(O)[C@@H]1CCCCN1; CO = O=C([*:1])[*:2]

Tests used:
Experiment in all cases: DTP human tumour cell line panel, 48 h
SW-620 colon = tested on: SW-620 colon
NCI-H522 lung = tested on: NCI-H522 lung
SR leukemia = tested on: SR leukemia
DU-145 prostate = tested on: DU-145 prostate
U251 CNS = tested on: U251 CNS
HCT-116 colon = tested on: HCT-116 colon
SF-268 CNS = tested on: SF-268 CNS
COLO 205 colon = tested on: COLO 205 colon
SN12C renal = tested on: SN12C renal
A549 NSCLC = tested on: A549 NSCLC
786-0 renal = tested on: 786-0 renal
NCI-H226 lung = tested on: NCI-H226 lung
HOP-92 NSCLC = tested on: HOP-92 NSCLC
SNB-19 CNS = tested on: SNB-19 CNS
T-47D breast = tested on: T-47D breast
UACC-257 melanoma = tested on: UACC-257 melanoma
MCF7 breast = tested on: MCF7 breast
HCT-15 colon = tested on: HCT-15 colon
SK-MEL-5 melanoma = tested on: SK-MEL-5 melanoma
SK-MEL-28 melanoma = tested on: SK-MEL-28 melanoma
OVCAR-3 ovarian = tested on: OVCAR-3 ovarian
NCI/ADR-RES ovarian = tested on: NCI/ADR-RES ovarian
HL-60(TB) leukemia = tested on: HL-60(TB) leukemia
NCI-H23 lung = tested on: NCI-H23 lung
TK-10 renal = tested on: TK-10 renal
HT29 colon = tested on: HT29 colon
SK-MEL-2 melanoma = tested on: SK-MEL-2 melanoma
OVCAR-4 ovarian = tested on: OVCAR-4 ovarian
SF-295 CNS = tested on: SF-295 CNS
ACHN renal = tested on: ACHN renal
NCI-H460 lung = tested on: NCI-H460 lung
UACC-62 melanoma = tested on: UACC-62 melanoma
HS 578T breast = tested on: HS 578T breast
SNB-75 CNS = tested on: SNB-75 CNS
SK-OV-3 ovarian = tested on: SK-OV-3 ovarian
M14 melanoma = tested on: M14 melanoma
CCRF-CEM leukemia = tested on: CCRF-CEM leukemia
PC-3 prostate = tested on: PC-3 prostate
HOP-62 NSCLC = tested on: HOP-62 NSCLC
BT-549 breast = tested on: BT-549 breast
KM12 colon = tested on: KM12 colon
A498 renal = tested on: A498 renal
UO-31 renal = tested on: UO-31 renal
SF-539 CNS = tested on: SF-539 CNS
RPMI-8226 leukemia = tested on: RPMI-8226 leukemia
K-562 leukemia = tested on: K-562 leukemia
HCC-2998 colon = tested on: HCC-2998 colon
MDA-MB-435 = tested on: MDA-MB-435
OVCAR-5 ovarian = tested on: OVCAR-5 ovarian
MOLT-4 leukemia = tested on: MOLT-4 leukemia
LOX IMVI melanoma = tested on: LOX IMVI melanoma
OVCAR-8 ovarian = tested on: OVCAR-8 ovarian
IGROV1 ovarian = tested on: IGROV1 ovarian
RXF 393 renal = tested on: RXF 393 renal
MALME-3M melanoma = tested on: MALME-3M melanoma
EKVX NSCLC = tested on: EKVX NSCLC
CAKI-1 renal = tested on: CAKI-1 renal
MDA-MB-231 breast = tested on: MDA-MB-231 breast

Cc1cccc(C[C@H](NC(=O)Nc2ccc(Cl)cc2F)C(=O)N[C@@H]2C(=O)N3C[C@H](O)C[C@H]3C(=O)N3CCCC[C@H]3C(=O)N[C@@H](C)C(=O)N3C[C@H](C)C[C@H]3C(=O)O[C@H]2C)c1 ({NH(4-Cl-2-F-phenyl)-CO}-[Phe(3-Me)][aThr][Hyp][Pip]A[Pro(4R-Me)]; ester 2-C)
GI50 (SW-620 colon): 595 nM | TGI (SW-620 colon): 10900 nM | GI50 (NCI-H522 lung): 464 nM | TGI (NCI-H522 lung): 2600 nM | GI50 (SR leukemia): 546 nM | TGI (SR leukemia): 3550 nM | GI50 (DU-145 prostate): 511 nM | TGI (DU-145 prostate): 9840 nM | GI50 (U251 CNS): 440 nM | TGI (U251 CNS): 7770 nM | GI50 (HCT-116 colon): 404 nM | TGI (HCT-116 colon): 1660 nM | GI50 (SF-268 CNS): 499 nM | TGI (SF-268 CNS): 4020 nM | GI50 (COLO 205 colon): 344 nM | TGI (COLO 205 colon): 1360 nM | GI50 (SN12C renal): 393 nM | TGI (SN12C renal): 4600 nM | GI50 (A549 NSCLC): 505 nM | TGI (A549 NSCLC): 12100 nM | GI50 (786-0 renal): 1280 nM | TGI (786-0 renal): 7690 nM | GI50 (NCI-H226 lung): 511 nM | TGI (NCI-H226 lung): 2630 nM | GI50 (HOP-92 NSCLC): 525 nM | TGI (HOP-92 NSCLC): 3140 nM | GI50 (SNB-19 CNS): 381 nM | TGI (SNB-19 CNS): 11300 nM | GI50 (T-47D breast): 415 nM | TGI (T-47D breast): 4840 nM | GI50 (UACC-257 melanoma): 388 nM | TGI (UACC-257 melanoma): 2200 nM | GI50 (MCF7 breast): 391 nM | TGI (MCF7 breast): 3000 nM | GI50 (HCT-15 colon): 1930 nM | TGI (HCT-15 colon): 4340 nM | GI50 (SK-MEL-5 melanoma): 492 nM | TGI (SK-MEL-5 melanoma): 1700 nM | GI50 (SK-MEL-28 melanoma): 728 nM | TGI (SK-MEL-28 melanoma): 2080 nM | GI50 (OVCAR-3 ovarian): 438 nM | TGI (OVCAR-3 ovarian): 1750 nM | GI50 (NCI/ADR-RES ovarian): 11000 nM | TGI (NCI/ADR-RES ovarian): 33400 nM | GI50 (HL-60(TB) leukemia): 322 nM | TGI (HL-60(TB) leukemia): 1790 nM | GI50 (NCI-H23 lung): 551 nM | TGI (NCI-H23 lung): 3720 nM | GI50 (TK-10 renal): 1780 nM | TGI (TK-10 renal): 10100 nM | GI50 (HT29 colon): 547 nM | TGI (HT29 colon): 3060 nM | GI50 (SK-MEL-2 melanoma): 635 nM | TGI (SK-MEL-2 melanoma): 2370 nM | GI50 (OVCAR-4 ovarian): 324 nM | TGI (OVCAR-4 ovarian): 2680 nM | GI50 (SF-295 CNS): 416 nM | TGI (SF-295 CNS): 1800 nM | GI50 (ACHN renal): 2110 nM | TGI (ACHN renal): 6160 nM | GI50 (NCI-H460 lung): 398 nM | TGI (NCI-H460 lung): 2460 nM | GI50 (UACC-62 melanoma): 505 nM | TGI (UACC-62 melanoma): 1960 nM | GI50 (HS 578T breast): 455 nM | TGI (HS 578T breast): 3580 nM | GI50 (SNB-75 CNS): 544 nM | TGI (SNB-75 CNS): 4800 nM | GI50 (SK-OV-3 ovarian): 501 nM | TGI (SK-OV-3 ovarian): 3520 nM | GI50 (M14 melanoma): 487 nM | TGI (M14 melanoma): 2190 nM | GI50 (CCRF-CEM leukemia): 520 nM | TGI (CCRF-CEM leukemia): 12000 nM | GI50 (PC-3 prostate): 365 nM | TGI (PC-3 prostate): 1850 nM | GI50 (HOP-62 NSCLC): 484 nM | TGI (HOP-62 NSCLC): 3620 nM | GI50 (BT-549 breast): 540 nM | TGI (BT-549 breast): 2740 nM | GI50 (KM12 colon): 788 nM | TGI (KM12 colon): 2490 nM | GI50 (A498 renal): 327 nM | TGI (A498 renal): 2150 nM | GI50 (UO-31 renal): 2140 nM | TGI (UO-31 renal): 7680 nM | GI50 (SF-539 CNS): 733 nM | TGI (SF-539 CNS): 2290 nM | GI50 (RPMI-8226 leukemia): 128 nM | TGI (RPMI-8226 leukemia): 1630 nM | GI50 (K-562 leukemia): 221 nM | TGI (K-562 leukemia): > 33700 nM | GI50 (HCC-2998 colon): 468 nM | TGI (HCC-2998 colon): 1770 nM | GI50 (MDA-MB-435): 438 nM | TGI (MDA-MB-435): 1740 nM | GI50 (OVCAR-5 ovarian): 554 nM | TGI (OVCAR-5 ovarian): 2360 nM | GI50 (MOLT-4 leukemia): 876 nM | TGI (MOLT-4 leukemia): 6280 nM | GI50 (LOX IMVI melanoma): 670 nM | TGI (LOX IMVI melanoma): 2160 nM | GI50 (OVCAR-8 ovarian): 435 nM | TGI (OVCAR-8 ovarian): 15600 nM | GI50 (IGROV1 ovarian): 919 nM | TGI (IGROV1 ovarian): 2980 nM | GI50 (RXF 393 renal): 1310 nM | TGI (RXF 393 renal): 2960 nM | GI50 (MALME-3M melanoma): 553 nM | TGI (MALME-3M melanoma): 2190 nM | GI50 (EKVX NSCLC): 860 nM | TGI (EKVX NSCLC): 8040 nM | GI50 (CAKI-1 renal): 807 nM | TGI (CAKI-1 renal): 5580 nM | GI50 (MDA-MB-231 breast): 429 nM | TGI (MDA-MB-231 breast): 1710 nM
